This note sets out measurements from patent US10526327B2, “Histone demethylase inhibitors” (CELGENE QUANTICEL RESEARCH, INC., priority 2013, dated 2020).

SMILES strings stand for the structures. A value given as a limit tells only on which side of the number the result lay.

In one test the target is T1, JMJD2C (Homo sapiens, UniProt Q9H3R0).
T1 construct: purchased BPS Bioscience 50105
T1 sequence (Q9H3R0 2-372): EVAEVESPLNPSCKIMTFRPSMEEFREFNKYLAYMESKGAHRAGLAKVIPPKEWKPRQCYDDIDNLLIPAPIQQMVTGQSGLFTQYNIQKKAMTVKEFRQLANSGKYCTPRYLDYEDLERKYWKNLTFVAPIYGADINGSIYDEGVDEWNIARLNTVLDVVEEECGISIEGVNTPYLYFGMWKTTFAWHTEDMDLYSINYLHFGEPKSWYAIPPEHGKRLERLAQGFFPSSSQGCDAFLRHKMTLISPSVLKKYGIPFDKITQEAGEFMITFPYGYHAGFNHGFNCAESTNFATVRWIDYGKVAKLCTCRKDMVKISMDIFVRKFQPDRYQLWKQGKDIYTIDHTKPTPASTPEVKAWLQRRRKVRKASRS
Nature of the test: JMJD2C in vitro enzyme inhibition assay (TR-FRET). Format: biochemical.
Details: not given
The method in brief: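 IC50 came from 665/615 TR-FRET ratios (Eu-anti-H3K9me2 antibody, streptavidin-APC, EDTA quench) over 11-point inhibitor series. Reactions ran 30 min at room temperature: 0.3 nM JMJD2C (AA 2-372, baculovirus), 300 nM biotinylated H3K9me3 peptide, 2 μM alpha-ketoglutarate, 2 μM Fe(II), ascorbate, pH 7.3.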
`Oc1nc(OCc2ccc3ccccc3c2)nc2cnccc12` [Example 187, 2-(naphthalen-2-ylmethoxy)pyrido[3,4-d]pyrimidin-4-ol] showed an IC50 of 1000 to 10000 nM.
Still for that read-out and setting: for `Oc1nc(OCc2ccccc2-c2ccccc2)nc2cnccc12` [Example 185, 2-[(2-phenylphenyl)methoxy]pyrido[3,4-d]pyrimidin-4-ol] the value was 100 to 1000 nM.
On the same count and under the same terms, the figure for `Oc1nc(OCc2cccc(F)c2F)nc2cnccc12` [Example 181, 2-[(2,3-difluorophenyl)methoxy]pyrido[3,4-d]pyrimidin-4-ol] is ≤ 100 nM; for `N#Cc1cccc(COc2nc(O)c3ccncc3n2)c1` [Example 32, 3-[(4-hydroxypyrido[3,4-d]pyrimidin-2-yl)oxymethyl]benzonitrile] it is 100 to 1000 nM; for `Oc1nc(OCC2CCc3ccccc32)nc2cnccc12` (stereo not drawn) [Example 190, 2-(2,3-dihydro-1H-inden-1-ylmethoxy)pyrido[3,4-d]pyrimidin-4-ol] it is ≤ 100 nM.
Turning to `Oc1nc(OCC2CCOc3ccccc32)nc2cnccc12` (stereo not drawn) [Example 195, 2-(3,4-dihydro-2H-1-benzopyran-4-ylmethoxy)pyrido[3,4-d]pyrimidin-4-ol], the IC50 is ≤ 100 nM.
Turning to `Oc1nc(OC2CCCc3ccccc32)nc2cnccc12` (stereo not drawn) [Example 196, 2-(1,2,3,4-tetrahydronaphthalen-1-yloxy)pyrido[3,4-d]pyrimidin-4-ol], the IC50 lay in the range of 1000 to 10000 nM.
Same read-out and setting: for `CC(C)OCCOc1nc(O)c2ccncc2n1` [Example 29, 2-(2-propan-2-yloxyethoxy)pyrido[3,4-d]pyrimidin-4-ol] the value was 100 to 1000 nM.
For `Oc1nc(OCc2cccc(F)c2)nc2cnccc12` [Example 179, 2-[(3-fluorophenyl)methoxy]pyrido[3,4-d]pyrimidin-4-ol], the IC50 is ≤ 100 nM.
On the same count and under the same terms, for `O=C(NCCOc1nc(O)c2ccncc2n1)c1ccccc1` [Example 31, N-[2-(4-hydroxypyrido[3,4-d]pyrimidin-2-yl)oxyethyl]benzamide] the value was 100 to 1000 nM; for `Oc1nc(OCC2CCCO2)nc2cnccc12` (stereo not drawn) [Example 26, 2-(oxolan-2-ylmethoxy)pyrido[3,4-d]pyrimidin-4-ol], 100 to 1000 nM; for `Oc1nc(OCc2cc(F)ccc2F)nc2cnccc12` [Example 182, 2-[(2,5-difluorophenyl)methoxy]pyrido[3,4-d]pyrimidin-4-ol], ≤ 100 nM.
Same read-out and setting: for `Oc1nc(OCCOCc2ccccc2)nc2cnccc12` [Example 30, 2-(2-phenylmethoxyethoxy)pyrido[3,4-d]pyrimidin-4-ol] the value was 100 to 1000 nM; for `Oc1nc(OCC2CCOC2)nc2cnccc12` (stereo not drawn) [Example 27, 2-(oxolan-3-ylmethoxy)pyrido[3,4-d]pyrimidin-4-ol], 100 to 1000 nM; for `CC(CO)COc1nc(O)c2ccncc2n1` (stereo not drawn) [Example 25, 2-(3-hydroxy-2-methylpropoxy)pyrido[3,4-d]pyrimidin-4-ol], 100 to 1000 nM.
On the same count and under the same terms, for `CC(C)Oc1nc(O)c2ccncc2n1` [Example 1, 2-propan-2-yloxy-3H-pyrido[3,4-d]pyrimidin-4-one] the value was 100 to 1000 nM; for `Oc1nc(OC2CCc3ccccc32)nc2cnccc12` (stereo not drawn) [Example 192, 2-(2,3-dihydro-1H-inden-1-yloxy)pyrido[3,4-d]pyrimidin-4-ol], 1000 to 10000 nM; for `Oc1nc(OCc2coc3ccccc23)nc2cnccc12` [Example 193, 2-(1-benzofuran-3-ylmethoxy)pyrido[3,4-d]pyrimidin-4-ol], ≤ 100 nM.
`Oc1nc(OCc2cccc(-c3ccccc3)c2)nc2cnccc12` [Example 186, 2-[(3-phenylphenyl)methoxy]pyrido[3,4-d]pyrimidin-4-ol] showed an IC50 of 100 to 1000 nM.
Take `Oc1nc(OC2CCOc3ccccc32)nc2cnccc12` (stereo not drawn) [Example 197, 2-(3,4-dihydro-2H-1-benzopyran-4-yloxy)pyrido[3,4-d]pyrimidin-4-ol]: the IC50 was ≤ 100 nM.
Same read-out and setting: the figure for `Oc1nc(OCc2c(F)cccc2F)nc2cnccc12` [Example 183, 2-[(2,6-difluorophenyl)methoxy]pyrido[3,4-d]pyrimidin-4-ol] is 100 to 1000 nM.
In the case of `Oc1nc(OCCOCC(F)(F)F)nc2cnccc12` [Example 23, 2-[2-(2,2,2-trifluoroethoxy)ethoxy]pyrido[3,4-d]pyrimidin-4-ol], the IC50 is 100 to 1000 nM.
On the same count and under the same terms, for `Oc1nc(OCc2ccc(F)cc2)nc2cnccc12` [Example 180, 2-[(4-fluorophenyl)methoxy]pyrido[3,4-d]pyrimidin-4-ol] the value was ≤ 100 nM; for `CC(C)(O)CCOc1nc(O)c2ccncc2n1` [Example 24, 2-(3-hydroxy-3-methylbutoxy)pyrido[3,4-d]pyrimidin-4-ol], 100 to 1000 nM.
Same read-out and setting: the figure for `Oc1nc(OCC2COc3ccccc32)nc2cnccc12` (stereo not drawn) [Example 194, 2-(2,3-dihydro-1-benzofuran-3-ylmethoxy)pyrido[3,4-d]pyrimidin-4-ol] is 1000 to 10000 nM.
On the same count and under the same terms, for `Cn1ccc(COc2nc(O)c3ccncc3n2)n1` [Example 33, 2-[(1-methylpyrazol-3-yl)methoxy]pyrido[3,4-d]pyrimidin-4-ol] the value was ≤ 100 nM.
For `CC(=O)N(C)CCOc1nc(O)c2ccncc2n1` [Example 28, N-[2-(4-hydroxypyrido[3,4-d]pyrimidin-2-yl)oxyethyl]-N-methylacetamide], the IC50 was in the range of 100 to 1000 nM.
In the case of `Oc1nc(OC2Cc3ccccc3C2)nc2cnccc12` [Example 189, 2-(2,3-dihydro-1H-inden-2-yloxy)pyrido[3,4-d]pyrimidin-4-ol], the IC50 was ≤ 100 nM.
As to `Oc1nc(OCc2ccccc2C(F)(F)F)nc2cnccc12` [Example 177, 2-{[2-(trifluoromethyl)phenyl]methoxy}pyrido[3,4-d]pyrimidin-4-ol], the concentration for half-maximal inhibition (IC50) is ≤ 100 nM.
Same read-out and setting: for `Oc1nc(OCC2CCc3ccccc3C2)nc2cnccc12` (stereo not drawn) [Example 191, 2-(1,2,3,4-tetrahydronaphthalen-2-ylmethoxy)pyrido[3,4-d]pyrimidin-4-ol] the value was ≤ 100 nM.
As for `Oc1nc(OCC2CCCc3ccccc32)nc2cnccc12` (stereo not drawn) [Example 188, 2-(1,2,3,4-tetrahydronaphthalen-1-ylmethoxy)pyrido[3,4-d]pyrimidin-4-ol], the IC50 was ≤ 100 nM.
For the molecule `Oc1nc(OCc2ccccc2F)nc2cnccc12` [Example 178, 2-[(2-fluorophenyl)methoxy]pyrido[3,4-d]pyrimidin-4-ol], the half-inhibitory concentration (IC50) is ≤ 100 nM.
The same measure, in the same setting: for `Oc1nc(OCc2cccc3ccccc23)nc2cnccc12` [Example 184, 2-(naphthalen-1-ylmethoxy)pyrido[3,4-d]pyrimidin-4-ol] the value was 100 to 1000 nM; for `Cn1cnc(-c2nccc3c(=O)[nH]cnc23)c1` [Example 198, 8-(1-methylimidazol-4-yl)-3H-pyrido[3,4-d]pyrimidin-4-one], 100 to 1000 nM.
For `CCOc1nc(O)c2ccncc2n1` [Example 2, 2-ethoxypyrido[3,4-d]pyrimidin-4-ol], the IC50 fell in the range of 100 to 1000 nM.
Same read-out and setting: the figure for `Oc1nc(Oc2ccccc2)nc2cnccc12` [Example 34, 2-phenoxypyrido[3,4-d]pyrimidin-4-ol] is 100 to 1000 nM.

In another test the test system is KDM5A/B. Nature of the test: In vitro cell-based assay: immuno-blot quantification of tri-methyl H3K4 in ZR-75-1 breast cancer cells. As to conditions: 72 hours, tri-methyl H3K4 level relative to GAPDH, percent of DMSO, read-out: Cellular IC50. The method in brief:
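ZR-75-1 breast cancer cells treated 72 h with 11-point compound dilutions (1250 μM to 10 nM). H3K4me3 quantified by infrared immunoblot densitometry, normalized to GAPDH and expressed as percent of DMSO control; relative IC50 from curve fit.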
Regarding `CC(C)(O)CCOc1nc(O)c2ccncc2n1` [Example 24, 2-(3-hydroxy-3-methylbutoxy)pyrido[3,4-d]pyrimidin-4-ol], the IC50 was > 10000 nM.
Still for that read-out and setting: for `CCOc1nc(O)c2ccncc2n1` [Example 2, 2-ethoxypyrido[3,4-d]pyrimidin-4-ol] the value was > 10000 nM.
For `Oc1nc(Oc2ccccc2)nc2cnccc12` [Example 34, 2-phenoxypyrido[3,4-d]pyrimidin-4-ol], the IC50 was > 10000 nM.
